Experimental data taken from patent US20020136785A1, “Ginseng berry extracts and pharmaceutical compositions from ginseng berry for the treatment of type 2 diabetes and obesity” (priority 2000, published 2002).

Key:
C57BL/6J ob/ob mice = test: Fasting blood glucose level in ob/ob mice; assay type: in vivo; settings: 20 mg/kg daily IP
Description: (§1) Male C57BL/6J ob/ob mice and their lean littermates (+/?) were obtained from Jackson Laboratory (Bar Harbor, Me.). In this obese, insulin-resistant mouse model, obesity is due to a mutation in the obese gene that encodes for leptin. […] The heterozygous mice are lean and normoglycemic. It is believed that the development of hyperglycemia in the ob/ob mouse is a consequence of epistatic interaction of the obesity mutation with diabetes-susceptibility genes. Adult animals at 10-18 weeks of age were used. Mice were housed in environmentally controlled conditions with a 12-h light/dark cycle and had free access to standard rodent pellet food, except when fasted before some experiments.
(§2) Animals were treated with Panax ginseng berry extract, Panax quinquefolius berry extract, ginsenoside Re or a polysaccharides fraction from Panax quinquefolius and the fasting blood glucose levels were measured. Fasting blood glucose levels were measured after animals were fasted for 4 hr (starting from 9:00AM), on Day 0 (before treatment), Day 5 (during treatment), and Day 12 (last day of treatment). Blood glucose levels were determined in tail blood samples at 1:00PM using a Glucose Analyzer (Hemocue AB, Angelholm, Sweden).

[1] = Body weight of ob/ob mice; assay type: in vivo
Procedure: The average body weight of adult ob/ob or db/db mice is almost twice that of their lean littermates. Animals were treated with Panax ginseng berry extract, Panax quinquefolius berry extract, ginsenoside Re, or a polysaccharide fraction from Panax quinquefolius and the body weights were determined.

lean mice = test: Intraperitoneal glucose tolerance test (IPGTT) in lean mice; assay type: in vivo; settings: 20 mg/kg, 12 days
Procedure: (§3) Animals were treated with Panax ginseng berry extract, Panax quinquefolius berry extract, ginsenoside Re, or a polysaccharide fraction from Panax quinquefolius . IPGTT was performed on Day 0 and Day 12. On the days of the test, animals were fasted for 4 hr (starting from 9:00AM) followed by an IP administration of glucose (2 g/kg). Blood glucose levels were determined in tail blood samples at 0 (prior to glucose administration), and 30, 60 and 120 min after glucose administration.

[2] = test system: lean littermates (+/?) of C57BL/6J ob/ob mice; test: Fasting blood glucose level in lean littermates of ob/ob mice; assay type: in vivo; settings: after treatment with ginsenoside Re
Description: as §1, §2

ob/ob mice = test: Intraperitoneal glucose tolerance test (IPGTT) in ob/ob mice; assay type: in vivo; settings: 20 mg/kg, 12 days, compared to vehicle-treated ob/ob mice
Procedure: as §3

[3] = test system: cultured bovine adrenal chromaffin cells; settings: cultured bovine adrenal chromaffin cells (Kudo et al., 1998); cited from earlier work
B16-BL6 melanoma cells = B16-BL6 melanoma cells (Wakabayashi et al., 1998); cited from earlier work
[4] = Hasegawa et al., 1995; cited from earlier work
[5] = Odani et al., 1983; cited from earlier work
[6] = Karikura et al., 1991; cited from earlier work
[7] = target: T1, nuclear glucocorticoid receptor (Homo sapiens, UniProt P04150); settings: Lee et al., 1997; Chung et al., 1998; cited from earlier work
T1 sequence (P04150 1-777): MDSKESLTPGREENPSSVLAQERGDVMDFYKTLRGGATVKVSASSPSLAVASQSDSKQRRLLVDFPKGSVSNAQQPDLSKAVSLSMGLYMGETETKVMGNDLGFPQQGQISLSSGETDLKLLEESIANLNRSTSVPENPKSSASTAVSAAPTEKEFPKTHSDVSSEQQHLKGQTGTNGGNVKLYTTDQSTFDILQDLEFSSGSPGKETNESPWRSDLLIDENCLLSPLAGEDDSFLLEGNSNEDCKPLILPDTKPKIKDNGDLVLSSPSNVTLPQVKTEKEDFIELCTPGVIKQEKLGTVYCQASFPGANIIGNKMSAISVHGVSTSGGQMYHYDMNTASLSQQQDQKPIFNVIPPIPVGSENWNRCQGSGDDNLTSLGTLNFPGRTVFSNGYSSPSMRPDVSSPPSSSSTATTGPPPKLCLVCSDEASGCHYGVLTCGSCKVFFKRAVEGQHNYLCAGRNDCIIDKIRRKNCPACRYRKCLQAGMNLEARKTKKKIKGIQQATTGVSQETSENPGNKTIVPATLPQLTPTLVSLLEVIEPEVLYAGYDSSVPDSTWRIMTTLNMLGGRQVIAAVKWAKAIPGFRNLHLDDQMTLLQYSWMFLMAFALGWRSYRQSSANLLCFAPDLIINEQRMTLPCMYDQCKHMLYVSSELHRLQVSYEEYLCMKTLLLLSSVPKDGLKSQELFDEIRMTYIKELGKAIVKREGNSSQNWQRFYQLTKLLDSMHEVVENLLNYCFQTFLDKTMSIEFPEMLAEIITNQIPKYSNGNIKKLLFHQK

albumin mRNA = settings: streptozotocin-induced diabetic rats (Yokozawa et al., 1996); cited from earlier work
[8] = test system: hepatic tissue of streptozotocin-induced diabetic rats; settings: streptozotocin-induced diabetic rats (Yokozawa et al., 1991); cited from earlier work
[9] = test system: streptozotocin-induced diabetic rats; settings: streptozotocin-induced diabetic rats (Yokozawa et al., 1985); cited from earlier work

CC(C)=CCC[C@](C)(O[C@@H]1O[C@H](CO)[C@@H](O)[C@H](O)[C@H]1O)[C@H]1CC[C@]2(C)[C@@H]1[C@H](O)C[C@@H]1[C@@]3(C)CC[C@H](O)C(C)(C)[C@@H]3[C@@H](O[C@@H]3O[C@H](CO)[C@@H](O)[C@H](O)[C@H]3O[C@@H]3O[C@@H](C)[C@H](O)[C@@H](O)[C@H]3O)C[C@]12C [ginsenoside Re]
fasting blood glucose (C57BL/6J ob/ob mice; Day 5, 4 hr fast): 188 ± 9.2 mg/dL | fasting blood glucose (C57BL/6J ob/ob mice; Day 12, 4 hr fast): 180 ± 10.8 mg/dL | body weight ([1]; 20 mg/kg group, Day 0): 53.1 ± 1.4 g | body weight ([1]; 20 mg/kg, Day 5): 52.9 ± 1.5 g | body weight ([1]; 20 mg/kg, Day 12): 54.7 ± 1.7 g | glucose tolerance, IPGTT (lean mice): not statistically affected | change of fasting blood glucose [2]: did not change sizably | blood glucose levels at 60 min and 120 min following glucose administration, IPGTT (ob/ob mice): significantly decreased

CC(C)=CCC[C@@](C)(O)[C@H]1CC[C@]2(C)[C@@H]1[C@H](O)C[C@@H]1[C@@]3(C)CC[C@H](O)C(C)(C)[C@@H]3[C@@H](O[C@@H]3O[C@H](CO)[C@@H](O)[C@H](O)[C@H]3O[C@@H]3O[C@@H](C)[C@H](O)[C@@H](O)[C@H]3O)C[C@]12C [20(R) ginsenoside Rg2]
acetylcholine-evoked secretion of catecholamines [3]: inhibit

CC(C)=CCC[C@](C)(O[C@@H]1O[C@H](CO)[C@@H](O)[C@H](O)[C@H]1O)[C@H]1CC[C@]2(C)[C@@H]1[C@H](O)C[C@@H]1[C@@]3(C)CC[C@H](O)C(C)(C)[C@@H]3CC[C@]12C [compound K]
apoptosis (B16-BL6 melanoma cells): induce apoptosis | cytotoxicity of antineoplastic drugs [4]: increase the cytotoxicity

CC(C)=CCCC(C)(O)C1CCC2(C)C1C(O)CC1C3(C)CCC(O)C(C)(C)C3C(OC3OC(CO)C(O)C(O)C3OC3OC(C)C(O)C(O)C3O)CC12C [20(S) ginsenoside Rg2]
acetylcholine-evoked secretion of catecholamines [3]: inhibit | inhibitory effect compared with the other C-20 isomer [3]: greater inhibitory effect

CC(C)=CCC[C@](C)(O[C@@H]1O[C@H](CO[C@@H]2O[C@H](CO)[C@@H](O)[C@H](O)[C@H]2O)[C@@H](O)[C@H](O)[C@H]1O)[C@H]1CC[C@]2(C)[C@@H]1[C@H](O)C[C@@H]1[C@@]3(C)CC[C@H](O[C@@H]4O[C@H](CO)[C@@H](O)[C@H](O)[C@H]4O[C@@H]4O[C@H](CO)[C@@H](O)[C@H](O)[C@H]4O)C(C)(C)[C@@H]3CC[C@]12C [Rb1]
absorption after ingestion [5]: poorly absorbed | metabolism by intestinal flora [6]: hydrolyzed to compound K

CC(C)=CCC[C@](C)(O[C@@H]1O[C@H](CO)[C@@H](O)[C@H](O)[C@H]1O)[C@H]1CC[C@]2(C)[C@@H]1[C@H](O)C[C@@H]1[C@@]3(C)CC[C@H](O)C(C)(C)[C@@H]3[C@@H](O[C@@H]3O[C@H](CO)[C@@H](O)[C@H](O)[C@H]3O)C[C@]12C [Rg1]
absorption after ingestion [5]: poorly absorbed | ligand of the nuclear glucocorticoid receptor [7]: functional ligand

CC(C)=CCC[C@](C)(O[C@@H]1O[C@H](CO[C@@H]2OC[C@H](O)[C@H](O)[C@H]2O)[C@@H](O)[C@H](O)[C@H]1O)[C@H]1CC[C@]2(C)[C@@H]1[C@H](O)C[C@@H]1[C@@]3(C)CC[C@H](O[C@@H]4O[C@H](CO)[C@@H](O)[C@H](O)[C@H]4O[C@@H]4O[C@H](CO)[C@@H](O)[C@H](O)[C@H]4O)C(C)(C)[C@@H]3CC[C@]12C [ginsenoside Rb2]
albumin mRNA in the liver (albumin mRNA): increased albumin mRNA | ATP levels in hepatic tissue [8]: increased ATP levels | blood glucose levels [9]: significant decrease
